The values that follow are results of earlier work, collected in US20180133147A1, “Drug Delivery Systems” (Novartis AG, priority 2013, published 2018).

Like-named read-outs stand apart in the source and are kept apart here.

vapreotide pamoate: where the note is “PBS pH 7.4”, the “solubility in phosphate buffer saline” value was 20 to 40 µg/mL.

As for octreotide pamoate, the solubility in water (25° C.) was 200 µg/mL.

For the substance pasireotide pamoate, the solubility in water is 20 µg/mL.
